Assay results from US20060093673A1, “Controlled release of anti-arrhythmic agents” (priority 2003, published 2006).
Converted amounts (≈) assume the structure as drawn. Counter-ions that a name gives are not always drawn.

Assays:
[1] = cited from earlier work
[2] = In-vitro release from FocalSeal-L gel disks, flow-through dissolution tank; type: physicochemical; settings: FocalSeal-L with 1% dexamethasone and 1% amiodarone HCl; 2 mm gel disc
Text: Method: […] The gel disks were then placed in a flow-through dissolution tank and gels were sampled over time. Residual drug was extracted from the gel disks with methanol and drug was quantitated by HPLC.

[3] = Modulus and pH of FOCALSEAL-L as a function of drug loading; settings: loaded into the FOCALSEAL-L formulation

SMILES | aqueous solubility [1] [µg/mL] | time over which amiodarone HCl is released in-vitro [2] [days] | loading level that maintains acceptable pH and modulus values [3]
C[C@@H]1C[C@H]2[C@@H]3CCC4=CC(=O)C=C[C@]4(C)[C@@]3(F)[C@@H](O)C[C@]2(C)[C@@]1(O)C(=O)CO [dexamethasone free base, dexamethasone] | 10000 (≈ 25.5 mM) |  | 
CCCCc1oc2ccccc2c1C(=O)c1cc(I)c(OCCN(CC)CC)c(I)c1 [amiodarone, Amiodarone hydrochloride] |  | 11 to 12 | about 1.5%
